Experimental data: paper PMC7156724, “Potent BRD4 inhibitor suppresses cancer cell-macrophage interaction” (Nature Communications, 2020)
Several values for one entry are separate records, joined by “and”; a condition that tells them apart may be missing. Equal entries are not always repeated. Values belong to the molecule of their own block, whether it stands above or below them.

Assays:
[1] = system: human melanoma patient-derived xenograft (PDX); assay: Human melanoma patient-derived xenograft (PDX) tumor growth; assay type: in vivo, NSG mice; conditions: Fig.3f, 1.5mg/kg, individual animals, in mm³ (unit assumed)
From the text: PO, oral administration; QD, once daily; BID, twice daily. b–d Tumor growth curves for A2780 ovarian tumor (n = 5) (b), TMD8 large B cell lymphoma (n = 6) (c), and B16F10 melanoma (n = 5) (d) bearing mice treated with the indicated compounds once daily for 11-21 days. e, f Tumor growth curves for A375 melanoma (n = 6) (e), and patient-derived xenograft (PDX) of melanoma (n = 5) (f) bearing mice treated with the indicated compounds once daily (5 days on, 2 days off) for 21 days. For d–f, NHWD-870 used is NHWD-870-HCl synthesized using Suzuki coupling route. Data are presented as mean ± SEM in (a, b, d, f) and mean + SEM in (c, e). p values were calculated using two-tailed, unpaired t tests. *p < 0.05; **p < 0.01; ***p < 0.001. Source data are provided as a Source Data file.
4–6 weeks old female BALB/c nude mice were used for most experiments, with the exception of 6–8 weeks old female C57BL/6 mice were used for B16F10 experiments, and 6–8 weeks old male BALB/c nude mice and SD rats were used for pharmacokinetic experiments. All animals were purchased from Shanghai SIPPR-Bk Lab Animal Co., Ltd. All animals were housed under a regimen of 12 h light/12 h dark cycles and specific pathogen-free conditions. 5×10^6 NCI-H526, ES-2, MDA-MB231, A2780, A375, B16F10, and TMD-8 cells (0.1 ml) were injected subcutaneously into female nude mice. The melanoma patient-derived xenograft model was derived from a human melanoma sample (BRAF, NARS and NF1 wild type, and p53 mutant) removed from a patient in Xiangya Hospital. Surgically removed tumor fragments were implanted subcutaneously into female NSG mice. When the tumors grew to ~1000 mm^3, they were harvested and cryopreserved or immediately re-implanted for expansion or experiments. Mouse body weight and tumor sizes were measured every 3 days. Once the tumors grew to 150–200 mm^3, mice were treated with the compounds as described in the Figures. 1 × 10^6 A2780 cells (1 ml) were injected into the abdominal cavity of nude mice. Ascitic volume and tumor weight were measured by an electronic balance. All the procedures were evaluated and approved by the Institutional Animal Care and Use Committee of Central South University and Yale University.

A375 melanoma cells = assay: AlamarBlue assay, A375; assay type: cell-based, human; conditions: for Cellular activity in melanoma cells (A375), alamarBlue: Fig.1g, replicates
Description: 3. AlamarBlue assay. AlamarBlue was made by resazurin sodium salt (Sigma, Cat
# 199303) dissolved in PBS.
NCI-H211, MDA-MB231 and A375 cells were plated in 96-well plates at approximately 30% confluence and left overnight to adhere. In the following day, […]
of treatment, 10 μl AlamarBlue reagent (0.3 mg/ml) was added to each well, and after 18h, the florescence intensity in each well was measured using a top-reading fluorescent plate reader with excitation at 530 nm and emission at 590 nm. […]

HIF1 reporter activity = assay: HIF1 luciferase reporter assay; assay type: cell-based, human; conditions: A2780 and A375 cells, 20% or 1% O2, 24 h
Description: Fig. 7 NHWD-870 inhibited CSF1 expression through suppressing BRD4 and HIF1α in tumor cells. a, b Representative western blot analysis of control (Ctrl) and BRD4 knockout (KO) A375 and A2780 cells exposed to 20% or 1% O2 for 24 hours. Selected from three independent experiments. c, d Representative western blot analysis of A375 and A2780 cells treated with DMSO or 25 nM NHWD-870 and exposed to 20% or 1% O2 for 24 h. Selected from three independent experiments. e Relative HIF1 luciferase reporter activity in control (Ctrl), BRD4 knockout (KO), or NHWD-870 treated A375 and A2780 cells exposed to 20% or 1% O2 for 24 h. Data are presented as mean ± SEM from three independent experiments. f RT-qPCR analyses of CSF1 in control (Ctrl), BRD4 knockout (KO), or NHWD-870 treated A375 and A2780 cells exposed to 20% or 1% O2 for 24 hours. Data are presented as mean ± SEM from three independent experiments. g RT-qPCR analyses of HIF1A in A375 or A2780 cells treated with 15 nM NHWD-870 or DMSO control for 24 h. Data are presented as mean ± SEM from three independent experiments. h Genome browser view of BRD4 ChIP-seq peaks on the HIF1A promoter. Shown are BRD4 ChIP and input control of A375 cells (top panel) and BRD4 ChIP of MDA-MB231 cells treated with DMSO or JQ-1 (bottom panel). i BRD4 ChIP-qPCR analyses of the HIF1A promoter in A2780 cells treated with DMSO or NHWD-870 for 72 h. Data are presented as mean ± SEM from three independent experiments. j RT-qPCR analyses of CSF1 in A375 and A2780 cells were transiently transduced with HIF1α, then exposed to 1% O2 for 24 h. Ctrl, Control. Data are presented as mean ± SEM from three independent experiments. k A model showing the effects of NHWD-870 on cancer cell-TAM interaction. NHWD-870 inhibits the proliferation and survival of TAMs partly by inhibiting BRD4 activity, HIF1α expression, and CSF1 secretion by tumor cells, and downregulating CSF1R mediated ERK and PI3K/AKT signaling in TAMs. p values were calculated using two-tailed, unpaired t tests in this figure. *p < 0.05; **p < 0.01; ***p < 0.001. Source data are provided as a Source Data file.
Supplementary Figure 15. […]
Data in (a) and (c-e) are presented as mean ± SEM from 3 independent experiments. p values were calculated using two-tailed, unpaired t tests. **, p<0.01; ***, p<0.001. Source data are provided as a Source […]
All patients had […]
undergone complete cytoreductive surgery.
14. Immunohistochemical staining. Paraffin-embedded implantation samples isolated from peritoneal metastasis of EOC patients (128 cases) were sectioned at a thickness of 4μm. To stain CD68, CSF1 and p-BRD4, the slides were first deparaffinized in xylene and rehydrated with gradient concentrations of alcohol under standard procedures. After rehydration, the slides were immersed in 0.01 mol/L citrate buffer (pH 6.0) and heated (95°C) for 15 min for antigen retrieval.
Then, the samples were incubated with 3% hydrogen peroxide (H2O2) for 10 minutes followed by 10% normal goat serum blocking for 10 minutes. Subsequently, the sections were incubated with rabbit polyclonal anti-human CD68 antibody (dilution 1:100) (sc-20060, Santa Cruz Biotechnology) and anti-human p-BRD4

TAMs = assay: Transwell co-culture of pretreated A2780 cells and TAMs with CSF1 or anti-CSF1R antibodies; assay type: cell-based, mouse; conditions: co-culture with pretreated A2780 cells, MCSF-1 10ng/ml where added
Description: Fig. 6 CSF1/CSF1R signaling is critical for the tumor inhibitory effects of NHWD-870 and CSF1 induced ovarian cancer growth depends on macrophages. a Number of TAMs after treatment with the indicated concentration of CSF1 for 48 h. Data are presented as mean ± SEM from three independent experiments. b–d Schematics of the experiments (b). A2780 cells (pre-treated with DMSO or 100 nM NHWD-870 for 48 h) were seeded into the top chamber (transwell size: 0.4 μm), and TAMs (Mac, 40,000 cells per 24-well) in medium with PBS or 10 ng/ml CSF1 (c), or 50 ng/ml IgG or anti-CSF1R antibodies (d), were seeded into the bottom chamber. Shown are quantification of TAMs (c, d). Data are presented as mean ± SEM from three independent experiments. e Representative western blot analysis of A2780 cells stably transfected with CSF1 or empty vector (EV). Selected from three independent experiments. f Schematics of the animal experiments using an orthotopic mouse OC model, established by intraperitoneally injecting 1 × 10^6 (g–j) or 2 × 10^6 (k–m) human A2780 cells overexpressing CSF1 or control into female recipient nude mice. Mice were then treated with/without liposomal clodronate (LC) for 45 days (g–j) or treated with/without NHWD-870 (PO, QD, 3 mg/kg) for 37 days (k–m). g Increased mouse body weight was measured at the indicated time points (day 0-45 after LC treatment). h–j Net tumor weight (h), ascitic fluid volumes (i) tumor implantations in peritoneum, omentum and pevic cavity (j) were measured at day 45 from LC treatment. k–m Net tumor weight (k), ascitic fluid volumes (l) tumor implantations in peritoneum, omentum and pevic cavity (m) were measured at day 37 after NHWD-870 treatment. For g–m, data are presented as mean ± SEM from five different mice. p values were calculated using two-tailed, unpaired t tests in this figure. n.s, not significant; *p < 0.05; **p < 0.01; and ***p < 0.001. Source data are provided as a Source Data file.
CD45^+CD11b^+F4/80^+ TAMs were isolated from peritoneal metastasis of A2780 tumor-bearing mice and cultured in RPMI-1640 supplemented with 10% FBS, 1% penicillin/streptomycin, and 0–50 ng/ml CSF1 (R&D Systems) as indicated according to standard protocols. In the cancer cell-macrophage co-culture experiments, CSF1 was not added. In the transwell (Corning, pore size, 0.4 μm) co-culture experiments, tumor cells were placed into the upper chamber, and TAMs were seeded into the lower chamber.

Molecule: Cc1nnn(C)c1-c1cnc2c3c4cnn(C)c4ccc3n([C@H](c3ccccc3)C3CCOCC3)c2c1.Cl [870-HCI]
Tumor volume ([1]; day 0): 0
Tumor volume ([1]; day 3): 76 and 83 and 79 and 110 and 130
Tumor volume ([1]; day 7): 143 and 132 and 174 and 201 and 230
Tumor volume ([1]; day 11): 195 and 185 and 250 and 289 and 310
Tumor volume ([1]; day 15): 264 and 276 and 364 and 396 and 423
Tumor volume ([1]; day 19): 349 and 303 and 474 and 530 and 503
Tumor volume ([1]; day 21): 425 and 403 and 503 and 684 and 603

IC50 (A375 melanoma cells; Homo sapiens, A-375, nM printed in b8, the picture prints no unit, read-out: IC50, cellular activity in A375 (alamarBlue)): 34.8 nM
Molecule: Cc1sc2c(c1C)C(c1ccc(Cl)cc1)=N[C@@H](CC(=O)Nc1ccc(O)cc1)c1nnc(C)n1-2 [OTX-015]
Cellular activity in melanoma cells (A375), alamarBlue (A375 melanoma cells; concentration(nM) 0.21442): 0.2687 and 0.138
Cellular activity in melanoma cells (A375), alamarBlue (A375 melanoma cells; concentration(nM) 0.31236): 1.399 and 1.862
Cellular activity in melanoma cells (A375), alamarBlue (A375 melanoma cells; concentration(nM) 0.4103): 3 and 0.4387
Cellular activity in melanoma cells (A375), alamarBlue (A375 melanoma cells; concentration(nM) 0.6032): 12.3903 and 10.5044
Cellular activity in melanoma cells (A375), alamarBlue (A375 melanoma cells; concentration(nM) 1.2043): 24.9941 and 17.1565
Cellular activity in melanoma cells (A375), alamarBlue (A375 melanoma cells; concentration(nM) 1.8024): 69.0356 and 72.751
Cellular activity in melanoma cells (A375), alamarBlue (A375 melanoma cells; concentration(nM) 2.4): 91.1738 and 98.6047
Cellular activity in melanoma cells (A375), alamarBlue (A375 melanoma cells; concentration(nM) 3): 100.838 and 100.296
HIF1 reporter activity (HIF1 reporter activity): significantly decreased HIF1 reporter activity

B1: MCSF-1 (protein, UniProt P09603 33-554, looked up)
Macrophage colony-stimulating …: EEVSEYCSHMIGSGHLQSLQRLIDSQMETSCQITFEFVDQEQLKDPVCYLKKAFLLVQDIMEDTMRFRDNTPNAIAIVQLQELSLRLKSCFTKDYEEHDKACVRTFYETPLQLLEKVKNVFNETKNLLDKDWNIFSKNCNNSFAECSSQDVVTKPDCNCLYPKAIPSSDPASVSPHQPLAPSMAPVAGLTWEDSEGTEGSSLLPGEQPLHTVDPGSAKQRPPRSTCQSFEPPETPVVKDSTIGGSPQPRPSVGAFNPGMEDILDSAMGTNWVPEEASGEASEIPVPQGTELSPSRPGGGSMQTEPARPSNFLSASSPLPASAKGQQPADVTGTALPRVGPVRPTGQDWNHTPQKTDHPSALLRDPPEPGSPRISSLRPQGLSNPSTLSAQPQLSRSHSSGSVLPLGELEGRRSTRDRRSPAEPEGGPASEGAARPLPRFNSVPLTDTGHERQSEGSFSPQLQESVFHLLVPSVILVLLAVGGLLFYRWRRRSHQEPQRADSPLEQPEGSPLTQDDRQVELPV
Number of TAMs (Fig.6c) (TAMs; time 0): 5
Number of TAMs (Fig.6c) (TAMs; time 24): 6.1 and 7 and 6.4
Number of TAMs (Fig.6c) (TAMs; time 48): 18.4 and 16.8 and 17.9
Number of TAMs (Fig.6c) (TAMs; time 72): 34.1 and 29.5 and 32.5
